Measured values from the NIST ThermoML archive (doi:10.1021/je900194v).

Assay: xn = mol fraction of the nth substance listed
Details: 101 kPa, Liquid; for viscosity: Capillary tube (Ostwald / Ubbelohde) method; for mass density: Vibrating tube method

COC(=O)CCCCl [methyl 4-chlorobutanoate] + Cc1ccccc1
Details | mass density, 298.15 K [kg/m3] | mass density, 308.15 K [kg/m3] | mass density, 318.15 K [kg/m3] | viscosity, 298.15 K [mPa·s] | viscosity, 308.15 K [mPa·s] | viscosity, 318.15 K [mPa·s]
x1 = 0.1 | 891.28 | 881.71 | 872.09 | 0.614 | 0.551 | 0.486
x1 = 0.2 | 919.47 | 909.69 | 899.87 | 0.68 | 0.599 | 0.53
x1 = 0.3 | 946.73 | 936.79 | 926.77 | 0.753 | 0.662 | 0.582
x1 = 0.4001 | 973.21 | 963.07 | 952.89 | 0.829 | 0.731 | 0.635
x1 = 0.5 | 998.81 | 988.49 | 978.14 | 0.919 | 0.796 | 0.7
x1 = 0.6 | 1023.69 | 1013.23 | 1002.74 | 1.021 | 0.883 | 0.767
x1 = 0.7 | 1047.84 | 1037.22 | 1026.57 | 1.123 | 0.962 | 0.831
x1 = 0.8 | 1071.31 | 1060.54 | 1049.74 | 1.246 | 1.062 | 0.913
x1 = 0.8998 | 1094.05 | 1083.16 | 1072.21 | 1.38 | 1.17 | 1.001
x1 = 1 | 1116.24 | 1105.22 | 1094.13 | 1.519 | 1.279 | 1.089

COC(=O)CCCCl [methyl 4-chlorobutanoate] + Cc1ccccc1C
Details | mass density, 298.15 K [kg/m3] | mass density, 308.15 K [kg/m3] | mass density, 318.15 K [kg/m3] | viscosity, 298.15 K [mPa·s] | viscosity, 308.15 K [mPa·s] | viscosity, 318.15 K [mPa·s]
x1 = 0.1 | 899.36 | 890.63 | 881.84 | 0.814 | 0.71 | 0.627
x1 = 0.2001 | 923.55 | 914.54 | 905.46 | 0.872 | 0.757 | 0.688
x1 = 0.3 | 947.67 | 938.39 | 929.03 | 0.935 | 0.808 | 0.707
x1 = 0.3998 | 971.75 | 962.19 | 952.59 | 1.001 | 0.863 | 0.752
x1 = 0.4992 | 995.83 | 985.99 | 976.14 | 1.074 | 0.92 | 0.8
x1 = 0.6 | 1020.27 | 1010.17 | 1000.07 | 1.153 | 0.983 | 0.855
x1 = 0.7 | 1044.53 | 1034.19 | 1023.83 | 1.235 | 1.05 | 0.907
x1 = 0.8 | 1068.71 | 1058.13 | 1047.53 | 1.322 | 1.12 | 0.965
x1 = 0.9 | 1092.68 | 1081.88 | 1071.02 | 1.415 | 1.194 | 1.025
x1 = 1 | 1116.24 | 1105.22 | 1094.13 | 1.519 | 1.279 | 1.089
